In PubChem BioAssay AID328 (DTP/NCI, 2004):
Several values for one entry are separate records, joined by “and”; a condition that tells them apart may be missing. Identical values can stand only once. Inconclusive results and toxic doses are left out. How the source made its calls: active means survival T/C of 150% or more; inactive means T/C below 125% in these data.

System: BDF1 mice, P388 leukemia ip, median survival T/C
Assay: NCI In Vivo Anticancer Drug Screen. Data for tumor model P388 Leukemia (intraperitoneal) in B6D2F1 (BDF1) mice
Details: endpoint: median survival time, higher = longer survival
Summary of the method: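 Reported as T/C, where T is the survival measurement in dosed animals and C the same measurement in vehicle controls.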

[1] = dose: 50.0 mg/kg/injection, schedule: Q01DX009 (ip), vehicle: saline with Tween-80
[2] = dose: 100.0 mg/kg/injection, schedule: Q01DX009 (ip), vehicle: saline with Tween-80
[3] = dose: 100.0 mg/kg/injection, schedule: Q04DX003 (ip), vehicle: saline with Tween-80
[4] = dose: 200.0 mg/kg/injection, schedule: Q01DX009 (ip), vehicle: saline with Tween-80
[5] = dose: 200.0 mg/kg/injection, schedule: Q04DX003 (ip), vehicle: saline with Tween-80
[6] = dose: 25.0 mg/kg/injection, schedule: Q01DX009 (ip), vehicle: saline with Tween-80
[7] = dose: 100.0 mg/kg/injection, schedule: Q01DX001 (ip), vehicle: Klucel (hydroxypropylcellulose) (HPC)
[8] = dose: 200.0 mg/kg/injection, schedule: Q01DX001 (ip), vehicle: Klucel (hydroxypropylcellulose) (HPC)
[9] = dose: 400.0 mg/kg/injection, schedule: Q01DX001 (ip), vehicle: Klucel (hydroxypropylcellulose) (HPC)
[10] = dose: 400.0 mg/kg/injection, schedule: Q01DX009 (ip), vehicle: saline with Tween-80
[11] = dose: 50.0 mg/kg/injection, schedule: Q01DX009 (ip), vehicle: saline
[12] = dose: 50.0 mg/kg/injection, schedule: Q04DX003 (ip), vehicle: saline
[13] = dose: 100.0 mg/kg/injection, schedule: Q01DX009 (ip), vehicle: saline
[14] = dose: 100.0 mg/kg/injection, schedule: Q04DX003 (ip), vehicle: saline
[15] = dose: 200.0 mg/kg/injection, schedule: Q04DX003 (ip), vehicle: saline
[16] = dose: 400.0 mg/kg/injection, schedule: Q04DX003 (ip), vehicle: saline
[17] = dose: 50.0 mg/kg/injection, schedule: Q04DX003 (ip), vehicle: saline with Tween-80
[18] = dose: 200.0 mg/kg/injection, schedule: Q01DX009 (ip), vehicle: saline

Measured: T/C

Nc1nc(=O)n(CC(=O)c2cccs2)cc1F
inactive: [1] 100 % of control | [2] 90 % of control | [3] 95 % of control | [4] 86 % of control | [5] 100 % of control

O=C(c1ccccc1)c1cc[n+]([O-])cc1
inactive: dose: 75.0 mg/kg/injection, schedule: Q01DX001 (ip), vehicle: saline sonified 91 % of control | dose: 150.0 mg/kg/injection, schedule: Q01DX001 (ip), vehicle: saline sonified 91 % of control

S=C1N=C2c3ccccc3C2C(=S)S1 (stereo not given)
inactive: [1] 109 % of control | [2] 98 % of control | dose: 150.0 mg/kg/injection, schedule: Q01DX009 (ip), vehicle: saline with Tween-80 94 % of control

O=C(Nc1ncn[nH]1)C(=O)Nc1ncn[nH]1
inactive: [2] 102 % of control | [4] 100 % of control

C[N+](C)(CC(=O)Nc1ccc(Cl)c(C(F)(F)F)c1)CC(=O)c1ccc(Cl)c(Cl)c1
inactive: dose: 200.0 mg/kg/injection, schedule: Q04DX003 (ip), vehicle: saline sonified 100 % of control | dose: 400.0 mg/kg/injection, schedule: Q04DX003 (ip), vehicle: saline sonified 104 % of control

C=CCCCCCCCCC(=O)N(CC#N)CC(C)C
inactive: [1] 100 % of control | [2] 109 % of control | [4] 109 % of control

O=C1N2CCOC2=NC1(c1ccccc1)c1ccccc1
inactive: dose: 12.5 mg/kg/injection, schedule: Q01DX009 (ip), vehicle: water 94 % of control | dose: 25.0 mg/kg/injection, schedule: Q01DX009 (ip), vehicle: water 100 % of control | dose: 50.0 mg/kg/injection, schedule: Q01DX009 (ip), vehicle: water 94 % of control | dose: 100.0 mg/kg/injection, schedule: Q01DX009 (ip), vehicle: water 94 % of control

CSC(=S)N/N=C(\C)C1CCCC[N-]1.[Cl][Zn][Cl] (stereo not given)
inactive: dose: 12.5 mg/kg/injection, schedule: Q01DX009 (ip), vehicle: saline with Tween-80 105 % of control | [6] 119 % of control | [1] 118 % of control

CC1=CC(C)(C)NC(=S)N1c1ccccc1
inactive: dose: 75.0 mg/kg/injection, schedule: Q04DX003 (ip), vehicle: Klucel (hydroxypropylcellulose) (HPC) 100 % of control | [7] 95 % of control | dose: 150.0 mg/kg/injection, schedule: Q04DX003 (ip), vehicle: Klucel (hydroxypropylcellulose) (HPC) 100 % of control | [8] 104 % of control | dose: 300.0 mg/kg/injection, schedule: Q04DX003 (ip), vehicle: Klucel (hydroxypropylcellulose) (HPC) 100 % of control | [9] 109 % of control

CCC1(O)C2CCCC1CCC2 (stereo not given)
inactive: dose: 100.0 mg/kg/injection, schedule: Q01DX009 (ip), vehicle: other 100 % of control | dose: 100.0 mg/kg/injection, schedule: Q04DX003 (ip), vehicle: Klucel (hydroxypropylcellulose) (HPC) 100 % of control | dose: 200.0 mg/kg/injection, schedule: Q01DX009 (ip), vehicle: other 109 % of control | dose: 200.0 mg/kg/injection, schedule: Q04DX003 (ip), vehicle: Klucel (hydroxypropylcellulose) (HPC) 108 % of control | dose: 400.0 mg/kg/injection, schedule: Q01DX009 (ip), vehicle: other 113 % of control | dose: 400.0 mg/kg/injection, schedule: Q04DX003 (ip), vehicle: Klucel (hydroxypropylcellulose) (HPC) 100 % of control

O=S(=O)(Nc1ccc(O)c(Cl)c1)c1ccccc1
inactive: [2] 86 % of control | [4] 100 % of control | [10] 104 % of control

COc1cc2ccncc2cc1OCc1ccccc1
inactive: dose: 6.25 mg/kg/injection, schedule: Q04DX003 (ip), vehicle: saline 100 % of control | dose: 12.5 mg/kg/injection, schedule: Q04DX003 (ip), vehicle: saline 100 % of control and 118 % of control | dose: 25.0 mg/kg/injection, schedule: Q01DX009 (ip), vehicle: saline 86 % of control | dose: 25.0 mg/kg/injection, schedule: Q04DX003 (ip), vehicle: saline 93 % of control and 103 % of control | [11] 92 % of control | [12] 98 % of control and 118 % of control | [13] 104 % of control | [14] 97 % of control and 100 % of control | [15] 93 % of control and 120 % of control | [16] 106 % of control

CC1CCS(=O)(=O)CC1.[Cl][Hg][Cl]
inactive: dose: 0.3 mg/kg/injection, schedule: Q01DX009 (ip), vehicle: saline 95 % of control | dose: 0.6 mg/kg/injection, schedule: Q01DX009 (ip), vehicle: saline 100 % of control | dose: 1.2 mg/kg/injection, schedule: Q01DX009 (ip), vehicle: saline 95 % of control

CC(=S)Nc1ccc2ccccc2c1
inactive: [2] 107 % of control | [3] 118 % of control | [4] 107 % of control | [5] 109 % of control | [10] 119 % of control | dose: 400.0 mg/kg/injection, schedule: Q04DX003 (ip), vehicle: saline with Tween-80 122 % of control

CCCCCCCSCCSCCSCCCCCCC
inactive: [7] 100 % of control | [8] 100 % of control | [9] 100 % of control

CCP(=Nc1cc(C(C)(C)C)cc(C(C)(C)C)c1O)(c1ccccc1)c1ccccc1
inactive: [1] 96 % of control | [2] 91 % of control | [4] 89 % of control

NC(=O)c1ncc[nH]c1=O
inactive: [17] 100 % of control | [3] 100 % of control | [5] 105 % of control

FC(F)(F)c1cccc(-c2nc3nc(Cl)c(Cl)nc3[nH]2)c1
inactive: [6] 99 % of control | [1] 94 % of control | [17] 108 % of control | [2] 103 % of control

CCOC(=O)CCCN(c1sc(C)c(-c2ccccc2)c1C(=O)OCC)S(=O)(=O)c1ccc(C)cc1
inactive: [2] 109 % of control | [4] 90 % of control

CN(C)C1CCCCC1
inactive: dose: 25.0 mg/kg/injection, schedule: Q04DX003 (ip), vehicle: Klucel (hydroxypropylcellulose) (HPC) 91 % of control | dose: 50.0 mg/kg/injection, schedule: Q04DX003 (ip), vehicle: Klucel (hydroxypropylcellulose) (HPC) 95 % of control

N#CC(Nc1ccccc1C(N)=O)c1ccccc1 (stereo not given)
inactive: [14] 109 % of control | [15] 104 % of control | [16] 95 % of control

CCCC(CC)C(C(=O)OCC)C1=NC(C)(C)CC(C)O1 (stereo not given)
inactive: dose: 12.5 mg/kg/injection, schedule: Q01DX001 (ip), vehicle: saline sonified 100 % of control | dose: 25.0 mg/kg/injection, schedule: Q01DX001 (ip), vehicle: saline sonified 100 % of control | dose: 50.0 mg/kg/injection, schedule: Q01DX001 (ip), vehicle: saline sonified 100 % of control

NC(N)=NCCCCCC(=O)Oc1ccc([N+](=O)[O-])cc1
inactive: [11] 96 % of control | [12] 90 % of control and 91 % of control | [13] 99 % of control | [14] 87 % of control and 90 % of control | [18] 115 % of control | [15] 91 % of control and 100 % of control

S=c1nc[nH]c2nc[nH]c12.[Ag]
inactive: [13] 100 % of control | [18] 108 % of control | dose: 400.0 mg/kg/injection, schedule: Q01DX009 (ip), vehicle: saline 87 % of control
